Test results reported in the kinase profiling compilation of Christmann-Franck et al. (2016).

How the values were obtained:
Assay in all cases: radiometric filter-binding kinase assay
[1] = target: AURKB (human) (UniProt Q96GD4)
[2] = target: STK33 (human) (UniProt Q9BYT3)
[3] = system: OXSR1 (human), O95747 [T185E]
[4] = target: TLK1 (human) (UniProt Q9UKI8)
[5] = target: EIF2AK3 (human) (UniProt Q9NZJ5)
[6] = target: TEK (human) (UniProt Q02763)
[7] = target: ABL1 (human) (UniProt P00519)
[8] = target: PTK6 (human) (UniProt Q13882)
[9] = target: STK16 (human) (UniProt O75716)
[10] = target: PHKG1 (human) (UniProt Q16816)
[11] = target: IRAK1 (human) (UniProt P51617)
[12] = target: ZAP70 (human) (UniProt P43403)
[13] = target: PRKCG (human) (UniProt P05129)
[14] = target: TTBK1 (human) (UniProt Q5TCY1)
[15] = target: TSSK1B (human) (UniProt Q9BXA7)
[16] = target: TESK1 (human) (UniProt Q15569)

STK16 (human), sequence (O75716 whole entry, looked up): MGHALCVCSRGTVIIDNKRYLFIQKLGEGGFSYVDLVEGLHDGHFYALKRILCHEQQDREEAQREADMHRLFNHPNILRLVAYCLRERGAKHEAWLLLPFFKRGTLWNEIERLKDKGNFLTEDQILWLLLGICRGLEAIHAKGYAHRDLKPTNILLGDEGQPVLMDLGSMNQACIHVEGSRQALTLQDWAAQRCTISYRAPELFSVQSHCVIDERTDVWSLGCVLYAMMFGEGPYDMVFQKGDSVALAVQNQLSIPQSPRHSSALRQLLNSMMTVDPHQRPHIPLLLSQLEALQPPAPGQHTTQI
TSSK1B (human), sequence (Q9BXA7 whole entry, looked up): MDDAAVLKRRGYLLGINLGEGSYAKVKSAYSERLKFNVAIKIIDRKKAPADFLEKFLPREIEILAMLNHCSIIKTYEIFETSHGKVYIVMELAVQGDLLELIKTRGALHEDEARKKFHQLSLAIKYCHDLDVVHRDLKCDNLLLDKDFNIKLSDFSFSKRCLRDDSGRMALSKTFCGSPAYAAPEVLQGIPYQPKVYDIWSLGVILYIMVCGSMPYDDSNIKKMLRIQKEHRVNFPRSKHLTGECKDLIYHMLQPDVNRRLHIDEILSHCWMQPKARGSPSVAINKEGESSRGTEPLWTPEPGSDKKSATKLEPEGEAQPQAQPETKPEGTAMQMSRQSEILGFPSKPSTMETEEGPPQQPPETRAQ
TLK1 (human), sequence (Q9UKI8 whole entry, looked up): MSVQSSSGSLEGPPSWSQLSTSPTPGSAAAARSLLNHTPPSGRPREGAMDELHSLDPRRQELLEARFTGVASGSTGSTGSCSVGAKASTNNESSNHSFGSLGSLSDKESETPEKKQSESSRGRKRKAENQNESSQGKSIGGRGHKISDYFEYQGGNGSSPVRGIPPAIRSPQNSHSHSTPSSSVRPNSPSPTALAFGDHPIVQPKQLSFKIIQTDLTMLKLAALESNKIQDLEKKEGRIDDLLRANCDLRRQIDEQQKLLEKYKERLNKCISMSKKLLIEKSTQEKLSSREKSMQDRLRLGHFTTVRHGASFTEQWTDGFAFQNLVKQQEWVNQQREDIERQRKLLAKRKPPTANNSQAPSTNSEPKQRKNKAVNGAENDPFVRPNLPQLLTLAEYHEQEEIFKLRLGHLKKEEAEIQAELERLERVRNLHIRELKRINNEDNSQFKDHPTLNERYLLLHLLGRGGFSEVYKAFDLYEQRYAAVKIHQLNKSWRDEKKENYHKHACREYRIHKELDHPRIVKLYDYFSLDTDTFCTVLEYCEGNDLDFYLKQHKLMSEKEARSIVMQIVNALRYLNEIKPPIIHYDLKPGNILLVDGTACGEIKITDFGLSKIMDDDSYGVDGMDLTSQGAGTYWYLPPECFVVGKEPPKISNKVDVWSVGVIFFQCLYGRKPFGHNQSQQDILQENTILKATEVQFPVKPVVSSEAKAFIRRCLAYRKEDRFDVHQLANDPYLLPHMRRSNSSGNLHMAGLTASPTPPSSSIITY
AURKB (human), sequence (Q96GD4 whole entry, looked up): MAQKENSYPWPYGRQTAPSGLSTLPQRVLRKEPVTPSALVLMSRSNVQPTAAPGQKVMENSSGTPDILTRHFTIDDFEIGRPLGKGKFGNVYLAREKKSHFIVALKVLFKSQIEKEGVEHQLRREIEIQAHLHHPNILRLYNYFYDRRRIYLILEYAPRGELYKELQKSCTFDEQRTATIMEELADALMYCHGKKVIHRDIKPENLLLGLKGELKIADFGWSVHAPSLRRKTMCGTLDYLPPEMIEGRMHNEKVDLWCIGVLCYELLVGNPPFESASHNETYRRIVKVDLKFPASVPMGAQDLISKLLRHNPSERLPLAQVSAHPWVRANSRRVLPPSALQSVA
PHKG1 (human), sequence (Q16816 whole entry, looked up): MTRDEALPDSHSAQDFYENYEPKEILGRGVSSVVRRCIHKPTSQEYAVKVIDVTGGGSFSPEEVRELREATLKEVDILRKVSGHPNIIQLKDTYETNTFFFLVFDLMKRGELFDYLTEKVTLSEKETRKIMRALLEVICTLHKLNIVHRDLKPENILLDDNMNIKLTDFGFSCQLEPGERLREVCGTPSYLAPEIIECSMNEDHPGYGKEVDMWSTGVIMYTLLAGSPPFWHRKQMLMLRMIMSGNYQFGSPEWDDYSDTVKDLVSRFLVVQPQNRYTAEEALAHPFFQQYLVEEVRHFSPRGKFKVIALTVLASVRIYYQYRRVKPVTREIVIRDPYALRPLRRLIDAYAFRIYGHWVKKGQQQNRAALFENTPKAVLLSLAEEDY
ABL1 (human), sequence (P00519 whole entry, looked up): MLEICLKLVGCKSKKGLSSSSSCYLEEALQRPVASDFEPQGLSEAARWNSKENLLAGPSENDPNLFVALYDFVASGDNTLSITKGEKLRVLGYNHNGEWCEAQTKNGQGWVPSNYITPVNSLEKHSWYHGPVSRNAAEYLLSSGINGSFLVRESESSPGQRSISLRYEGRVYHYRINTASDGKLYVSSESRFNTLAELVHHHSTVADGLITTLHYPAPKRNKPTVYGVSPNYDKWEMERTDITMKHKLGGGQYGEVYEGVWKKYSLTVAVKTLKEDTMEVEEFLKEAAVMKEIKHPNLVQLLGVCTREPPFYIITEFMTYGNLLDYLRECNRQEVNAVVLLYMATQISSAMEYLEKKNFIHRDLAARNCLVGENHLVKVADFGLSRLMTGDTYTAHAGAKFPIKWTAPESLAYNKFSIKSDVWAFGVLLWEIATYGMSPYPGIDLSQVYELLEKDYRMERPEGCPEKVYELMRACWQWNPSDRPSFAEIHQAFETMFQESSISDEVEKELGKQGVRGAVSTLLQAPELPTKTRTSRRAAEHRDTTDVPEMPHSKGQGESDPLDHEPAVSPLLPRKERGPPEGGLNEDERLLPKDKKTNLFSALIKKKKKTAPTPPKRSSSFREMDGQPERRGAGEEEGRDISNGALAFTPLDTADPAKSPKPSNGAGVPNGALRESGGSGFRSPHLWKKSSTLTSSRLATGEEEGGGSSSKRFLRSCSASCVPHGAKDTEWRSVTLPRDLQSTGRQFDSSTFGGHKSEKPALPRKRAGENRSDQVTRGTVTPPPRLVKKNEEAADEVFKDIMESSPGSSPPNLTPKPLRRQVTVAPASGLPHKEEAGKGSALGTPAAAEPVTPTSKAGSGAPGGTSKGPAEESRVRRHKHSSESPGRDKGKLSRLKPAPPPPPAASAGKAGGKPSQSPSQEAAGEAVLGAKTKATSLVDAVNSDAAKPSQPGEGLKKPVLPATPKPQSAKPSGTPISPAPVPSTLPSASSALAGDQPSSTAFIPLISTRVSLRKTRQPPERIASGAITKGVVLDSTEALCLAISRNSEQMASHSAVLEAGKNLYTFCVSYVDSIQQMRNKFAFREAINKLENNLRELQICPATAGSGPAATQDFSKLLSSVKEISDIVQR
IRAK1 (human), sequence (P51617 whole entry, looked up): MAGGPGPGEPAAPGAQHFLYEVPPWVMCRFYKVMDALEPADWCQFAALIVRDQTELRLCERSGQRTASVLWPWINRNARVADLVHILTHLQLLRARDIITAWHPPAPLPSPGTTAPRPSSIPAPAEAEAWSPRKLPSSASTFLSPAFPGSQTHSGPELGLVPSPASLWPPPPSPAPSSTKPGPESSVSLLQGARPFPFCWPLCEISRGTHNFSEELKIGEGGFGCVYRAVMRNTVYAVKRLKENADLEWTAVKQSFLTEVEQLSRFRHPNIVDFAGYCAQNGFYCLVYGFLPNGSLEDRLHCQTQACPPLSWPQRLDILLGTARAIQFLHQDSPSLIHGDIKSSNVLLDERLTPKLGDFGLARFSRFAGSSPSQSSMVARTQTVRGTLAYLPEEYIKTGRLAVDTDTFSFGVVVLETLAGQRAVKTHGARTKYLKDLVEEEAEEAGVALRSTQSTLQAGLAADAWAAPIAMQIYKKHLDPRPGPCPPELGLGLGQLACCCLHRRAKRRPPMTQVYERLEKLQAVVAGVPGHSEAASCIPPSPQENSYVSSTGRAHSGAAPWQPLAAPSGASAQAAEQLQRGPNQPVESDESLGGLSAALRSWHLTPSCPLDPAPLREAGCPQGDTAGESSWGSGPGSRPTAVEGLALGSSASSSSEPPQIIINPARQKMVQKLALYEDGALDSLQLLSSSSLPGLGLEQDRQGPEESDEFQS

`O=C(Nc1nc2cc(C(F)(F)F)cc(NC3CC3)n2n1)c1cccnc1` gave a residual activity ([1]; compound 0.01 µM) of 93%, a residual activity ([1]; compound 0.1 µM) of 103% and a residual activity ([1]; compound 1.0 µM) of 89%. For the same molecule, the residual activity ([2]; compound 0.01 µM) was 97%, the residual activity ([2]; compound 0.1 µM) was 106% and the residual activity ([2]; compound 1.0 µM) was 88%. The residual activity ([3]; compound 0.01 µM) was 83%, the residual activity ([3]; compound 0.1 µM) was 114% and the residual activity ([3]; compound 1.0 µM) was 92%. For the same molecule, the residual activity ([4]; compound 0.01 µM) was 107%, the residual activity ([4]; compound 0.1 µM) was 99% and the residual activity ([4]; compound 1.0 µM) was 90%. For the same molecule, the residual activity ([5]; compound 0.01 µM) was 109%, the residual activity ([5]; compound 0.1 µM) was 117% and the residual activity ([5]; compound 1.0 µM) was 104%. It also gave a residual activity ([6]; compound 0.01 µM) of 94%, a residual activity ([6]; compound 0.1 µM) of 103% and a residual activity ([6]; compound 1.0 µM) of 69%. For the same molecule, the residual activity ([7]; compound 0.01 µM) was 95%, the residual activity ([7]; compound 1.0 µM) was 97% and the residual activity ([8]; compound 0.01 µM) was 114%. The residual activity ([8]; compound 0.1 µM) was 130%, the residual activity ([8]; compound 1.0 µM) was 124% and the residual activity ([9]; compound 0.01 µM) was 82%. It also gave a residual activity ([9]; compound 0.1 µM) of 96%, a residual activity ([9]; compound 1.0 µM) of 83% and a residual activity ([10]; compound 0.01 µM) of 104%. It also gave a residual activity ([10]; compound 0.1 µM) of 115%, a residual activity ([10]; compound 1.0 µM) of 92% and a residual activity ([11]; compound 0.01 µM) of 94%. It also gave a residual activity ([11]; compound 0.1 µM) of 100%, a residual activity ([11]; compound 1.0 µM) of 89% and a residual activity ([12]; compound 0.01 µM) of 76%. It also gave a residual activity ([12]; compound 0.1 µM) of 77%, a residual activity ([12]; compound 1.0 µM) of 84% and a residual activity ([13]; compound 0.01 µM) of 101%. For the same molecule, the residual activity ([13]; compound 0.1 µM) was 115% and the residual activity ([13]; compound 1.0 µM) was 106%.

For `Cc1nc(-c2ccc(OCC(C)C)c(C#N)c2)sc1C(=O)O`, the residual activity ([1]; compound 1.0 µM) was 95%, the residual activity ([1]; compound 10.0 µM) was 96% and the residual activity ([2]; compound 1.0 µM) was 101%. For the same molecule, the residual activity ([2]; compound 10.0 µM) was 89%, the residual activity ([3]; compound 1.0 µM) was 96% and the residual activity ([3]; compound 10.0 µM) was 80%. For the same molecule, the residual activity ([4]; compound 1.0 µM) was 86%, the residual activity ([4]; compound 10.0 µM) was 94% and the residual activity ([5]; compound 1.0 µM) was 94%. It also gave a residual activity ([5]; compound 10.0 µM) of 88%, a residual activity ([6]; compound 1.0 µM) of 78% and a residual activity ([6]; compound 10.0 µM) of 67%. The residual activity ([7]; compound 1.0 µM) was 96%, the residual activity ([7]; compound 10.0 µM) was 89% and the residual activity ([8]; compound 1.0 µM) was 99%. The residual activity ([9]; compound 1.0 µM) was 46%, the residual activity ([9]; compound 10.0 µM) was 47% and the residual activity ([10]; compound 1.0 µM) was 85%. For the same molecule, the residual activity ([10]; compound 10.0 µM) was 83%, the residual activity ([11]; compound 1.0 µM) was 106% and the residual activity ([11]; compound 10.0 µM) was 102%. The residual activity ([12]; compound 1.0 µM) was 104%, the residual activity ([13]; compound 1.0 µM) was 81% and the residual activity ([13]; compound 10.0 µM) was 85%.

In the case of `C=CC(=O)N1CCC[C@@H](n2nc(-c3ccc(Oc4ccccc4)cc3)c3c(N)ncnc32)C1`, the residual activity ([1]; compound 0.1 µM) is reported as 96%, the residual activity ([1]; compound 1.0 µM) is reported as 61% and the residual activity ([1]; compound 10.0 µM) is reported as 13%. It also gave a residual activity ([2]; compound 0.1 µM) of 97%, a residual activity ([2]; compound 1.0 µM) of 84% and a residual activity ([3]; compound 0.1 µM) of 96%. The residual activity ([3]; compound 1.0 µM) was 96%, the residual activity ([3]; compound 10.0 µM) was 82% and the residual activity ([4]; compound 1.0 µM) was 99%. The residual activity ([14]; compound 0.1 µM) was 78%, the residual activity ([14]; compound 1.0 µM) was 100% and the residual activity ([14]; compound 10.0 µM) was 81%. For the same molecule, the residual activity ([5]; compound 0.1 µM) was 110%, the residual activity ([5]; compound 1.0 µM) was 81% and the residual activity ([5]; compound 10.0 µM) was 28%. The residual activity ([15]; compound 0.1 µM) was 105%, the residual activity ([15]; compound 1.0 µM) was 108% and the residual activity ([15]; compound 10.0 µM) was 68%. It also gave a residual activity ([16]; compound 0.1 µM) of 69%, a residual activity ([16]; compound 1.0 µM) of 71% and a residual activity ([16]; compound 10.0 µM) of 38%. For the same molecule, the residual activity ([6]; compound 0.1 µM) was 71%, the residual activity ([6]; compound 1.0 µM) was 34% and the residual activity ([6]; compound 10.0 µM) was 9%. The residual activity ([7]; compound 0.1 µM) was 87%, the residual activity ([7]; compound 1.0 µM) was 80% and the residual activity ([7]; compound 10.0 µM) was 39%. For the same molecule, the residual activity ([8]; compound 0.1 µM) was 10%, the residual activity ([8]; compound 1.0 µM) was 4% and the residual activity ([8]; compound 10.0 µM) was 8%. For the same molecule, the residual activity ([9]; compound 0.1 µM) was 99%, the residual activity ([9]; compound 1.0 µM) was 117% and the residual activity ([9]; compound 10.0 µM) was 104%. It also gave a residual activity ([10]; compound 1.0 µM) of 104%, a residual activity ([10]; compound 10.0 µM) of 92% and a residual activity ([11]; compound 0.1 µM) of 108%. It also gave a residual activity ([11]; compound 1.0 µM) of 115%, a residual activity ([12]; compound 0.1 µM) of 93% and a residual activity ([12]; compound 1.0 µM) of 107%. For the same molecule, the residual activity ([12]; compound 10.0 µM) was 101%, the residual activity ([13]; compound 0.1 µM) was 85% and the residual activity ([13]; compound 1.0 µM) was 104%. It also gave a residual activity ([13]; compound 10.0 µM) of 99%.

With `O=C(NOC[C@H](O)CO)c1ccc(F)c(F)c1Nc1ccc(I)cc1Cl` the residual activity ([1]; compound 1.0 µM) was 87%, the residual activity ([1]; compound 10.0 µM) was 82% and the residual activity ([2]; compound 10.0 µM) was 107%. It also gave a residual activity ([3]; compound 1.0 µM) of 95%, a residual activity ([3]; compound 10.0 µM) of 93% and a residual activity ([4]; compound 1.0 µM) of 96%. For the same molecule, the residual activity ([4]; compound 10.0 µM) was 104%, the residual activity ([5]; compound 1.0 µM) was 96% and the residual activity ([5]; compound 10.0 µM) was 105%. It also gave a residual activity ([6]; compound 10.0 µM) of 96%, a residual activity ([7]; compound 1.0 µM) of 103% and a residual activity ([7]; compound 10.0 µM) of 98%. For the same molecule, the residual activity ([8]; compound 1.0 µM) was 115%, the residual activity ([8]; compound 10.0 µM) was 121% and the residual activity ([9]; compound 1.0 µM) was 85%. The residual activity ([9]; compound 10.0 µM) was 101%, the residual activity ([10]; compound 1.0 µM) was 95% and the residual activity ([10]; compound 10.0 µM) was 90%. The residual activity ([11]; compound 1.0 µM) was 84%, the residual activity ([11]; compound 10.0 µM) was 89% and the residual activity ([12]; compound 1.0 µM) was 84%. The residual activity ([12]; compound 10.0 µM) was 100%, the residual activity ([13]; compound 1.0 µM) was 91% and the residual activity ([13]; compound 10.0 µM) was 99%.
